Earlier results on one compound are cited in US9636304B2, “Pharmaceutical composition comprising citrate and bicarbonate salts, and use thereof for treating cystinuria” (ADVICENNE, priority 2010, dated 2017).

SMILES strings stand for the structures.

For this data set the following is noted: prior art, oral.

As to `O=C([O-])CC(O)(CC(=O)[O-])C(=O)[O-].[K+].[K+].[K+]` [potassium citrate], the gastric tolerance result is “mediocre”.
